Results taken from patent US9695192B2, “Fused heterocyclic compounds as ion channel modulators” (GILEAD SCIENCES, INC., priority 2011, dated 2017).

What follows are compounds tested against wild-type human cardiac sodium channel, hNav1.5 (Homo sapiens, UniProt Q14524) (assay: Late INa screening assay (QPatch whole cell patch clamp, tefluthrin-enhanced late sodium current)). Settings: HEK293 hNav1.5, late INa activated with 10 μM Tefluthrin.
Type: cell-based
Procedure: The late sodium current (Late INa) and peak sodium current (Peak INa) assays are performed on an automated electrophysiology platform, QPatch 16X (Sophion Bioscience, Copenhagen, Denmark), which uses the whole cell patch clamp technique to measure currents through the cell membrane of up to 16 cells at a time. The assay uses an HEK293 (human embryonic kidney) cell line heterologously expressing the wild-type human cardiac sodium channel, hNav1.5, purchased from Millipore (Billerica, Mass.). No beta subunits were coexpressed with the Na channel alpha subunit. Cells are maintained with standard tissue culture procedures and stable channel expression is maintained with 400 μg/mL Geneticin in the culture medium. Cells isolated for use on QPatch are incubated for 5 minutes in Detachin 1X (Genlantis, San Diego, USA) at 37° C. to ensure that 80-90% of the cells are single and not part of a cell cluster. Experiments are carried out at 23-25° C.
For both the Late INa and Peak INa assays, series resistance compensation is set to 100% and series resistance and whole-cell compensation are performed automatically. Currents are digitized at 25 kHz and low-pass filtered at 12 kHz and 10 kHz for the late and peak INa assays, respectively. Currents through open sodium channels are automatically recorded and stored in the Sophion Bioscience Oracle database (Sophion Bioscience, Copenhagen, Denmark). Analysis is performed using QPatch Assay and database software and data are compiled in Excel.
Compound stocks are routinely made by the Gilead Sample Bank in plastic vials to 10 mM in dimethyl sulfoxide (DMSO). In some cases, when compounds are not soluble in DMSO, they are made in 100% ethanol. Stocks are sonicated as necessary. The extracellular solution for screening Late INa is composed of: 140 mM NaCl, 4 mM KCl, 1.8 mM CaCl2, 0.75 mM MgCl2 and 5 mM HEPES with pH adjusted to 7.4 using NaOH. The intracellular solution used to perfuse the inside of the cells for both the Late INa and Peak INa assays contains: 120 mM CsF, 20 mM CsCl, 5 mM EGTA, 5 mM HEPES and pH adjusted to 7.4 with CsOH. Compounds are diluted in extracellular solution to 1 μM in glass vials and then transferred to glass well plates before robotic addition to the cells. A 0 mM Na extracellular solution (0 Na-ECF) is used at the end of each experiment for the Late INa and Peak INa assays to measure baseline current contains: 140 mM N-methyl-D-glucamine; 4 mM KCl; 1.8 mM CaCl2; 0.75 mM MgCl2; 5 mM HEPES and pH was adjusted to 7.4 with HCl.
For the hNav1.5 Late INa assay, sodium channels are activated every 10 seconds (0.1 Hz) by depolarizing the cell membrane to −20 mV for 250 milliseconds (ms) from a holding potential of −120 mV. In response to a −20 mV voltage step, typical hNav1.5 sodium currents activate rapidly to a peak negative current and then inactivate nearly completely within 3-4 ms.
Compounds were tested to determine their activity in blocking the late sodium current. Late INa was generated by adding 10 μM Tefluthrin (pyrethroid) to the extracellular solution while recording Na currents. To confirm the block of late INa observed using the automated screening method, a second late INa enhancer (ATX-II) and the manual patch clamp method were used. ATX-II and tefluthrin occupy distinct, non-overlapping binding sites and modify Na^+ channel function differently to increase late INa. Compounds tested have been found generally to inhibit the enhanced late INa caused by either late INa enhancer. For the purposes of the screening, late INa is defined as the mean current between 225 ms and 250 ms after stepping to −20 mV to activate Na channels. After establishing the whole cell recording configuration, late INa activator is added to each well 4 times over a 16-17 minute period so that the late component of the Na current reaches a stable value. Compounds were then added (typically at 1 μM), in the presence of the late INa activator, with 3 additions over the course of 7 or 8 minutes. […]

Sequence of wild-type human cardiac sodium channel, hNav1.5 (Q14524 whole entry): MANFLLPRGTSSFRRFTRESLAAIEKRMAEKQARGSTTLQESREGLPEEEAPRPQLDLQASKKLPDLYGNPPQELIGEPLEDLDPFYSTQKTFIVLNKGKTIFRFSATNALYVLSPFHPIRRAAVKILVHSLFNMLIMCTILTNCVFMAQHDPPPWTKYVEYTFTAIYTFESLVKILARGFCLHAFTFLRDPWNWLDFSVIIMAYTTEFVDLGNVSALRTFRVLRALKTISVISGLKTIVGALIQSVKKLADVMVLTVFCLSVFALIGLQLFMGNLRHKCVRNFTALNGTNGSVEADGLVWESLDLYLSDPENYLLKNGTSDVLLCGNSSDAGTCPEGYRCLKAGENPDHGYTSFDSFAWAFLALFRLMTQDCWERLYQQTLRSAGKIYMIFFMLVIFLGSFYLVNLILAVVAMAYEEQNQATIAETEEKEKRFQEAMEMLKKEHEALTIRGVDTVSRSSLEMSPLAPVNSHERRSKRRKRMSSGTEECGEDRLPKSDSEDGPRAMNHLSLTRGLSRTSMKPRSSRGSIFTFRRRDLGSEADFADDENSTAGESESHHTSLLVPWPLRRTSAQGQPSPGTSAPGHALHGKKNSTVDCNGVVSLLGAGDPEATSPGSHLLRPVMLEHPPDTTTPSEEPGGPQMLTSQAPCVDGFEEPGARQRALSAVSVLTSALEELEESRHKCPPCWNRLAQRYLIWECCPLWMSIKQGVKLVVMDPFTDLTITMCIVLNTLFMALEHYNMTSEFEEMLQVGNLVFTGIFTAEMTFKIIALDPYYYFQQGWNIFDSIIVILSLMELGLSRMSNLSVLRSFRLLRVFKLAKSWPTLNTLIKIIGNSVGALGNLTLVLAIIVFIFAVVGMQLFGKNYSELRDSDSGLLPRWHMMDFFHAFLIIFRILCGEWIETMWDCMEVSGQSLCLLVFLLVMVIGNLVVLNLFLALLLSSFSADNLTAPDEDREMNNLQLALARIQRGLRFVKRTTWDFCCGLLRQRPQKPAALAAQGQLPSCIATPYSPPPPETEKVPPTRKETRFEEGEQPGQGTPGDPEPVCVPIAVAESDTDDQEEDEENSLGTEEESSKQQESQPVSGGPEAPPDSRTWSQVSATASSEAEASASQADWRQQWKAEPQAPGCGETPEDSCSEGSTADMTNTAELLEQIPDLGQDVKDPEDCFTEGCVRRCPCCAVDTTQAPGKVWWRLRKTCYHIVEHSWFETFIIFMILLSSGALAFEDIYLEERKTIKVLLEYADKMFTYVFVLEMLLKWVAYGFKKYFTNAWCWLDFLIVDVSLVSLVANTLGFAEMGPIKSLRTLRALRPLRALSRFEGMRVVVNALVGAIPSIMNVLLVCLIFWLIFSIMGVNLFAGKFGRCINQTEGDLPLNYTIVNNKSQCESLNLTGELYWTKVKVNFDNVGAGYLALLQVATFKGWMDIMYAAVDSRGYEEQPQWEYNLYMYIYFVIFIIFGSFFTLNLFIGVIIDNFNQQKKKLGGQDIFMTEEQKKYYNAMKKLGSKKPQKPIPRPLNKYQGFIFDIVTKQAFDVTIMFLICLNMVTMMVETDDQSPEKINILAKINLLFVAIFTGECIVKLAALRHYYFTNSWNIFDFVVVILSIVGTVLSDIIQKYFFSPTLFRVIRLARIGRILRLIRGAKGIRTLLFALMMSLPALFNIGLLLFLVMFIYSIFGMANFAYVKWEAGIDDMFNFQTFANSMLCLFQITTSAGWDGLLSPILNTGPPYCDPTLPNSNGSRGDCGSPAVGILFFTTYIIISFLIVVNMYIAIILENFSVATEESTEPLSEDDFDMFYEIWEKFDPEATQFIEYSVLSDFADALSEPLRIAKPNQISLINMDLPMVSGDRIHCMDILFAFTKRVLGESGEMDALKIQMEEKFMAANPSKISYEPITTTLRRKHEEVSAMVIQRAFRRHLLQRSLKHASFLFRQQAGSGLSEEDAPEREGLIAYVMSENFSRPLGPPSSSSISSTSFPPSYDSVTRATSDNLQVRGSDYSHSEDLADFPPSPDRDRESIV

**Q.** How did the inhibition at 1 µM turn out when `FC(F)(F)c1ccc(-c2ccc3c(c2)C(Nc2ccccn2)=NCCO3)cc1` [II-19, N-(pyridin-2-yl)-7-(4-(trifluoromethyl)phenyl)-2,3-dihydrobenzo[f][1,4]oxazepin-5-amine] was run?
**A.** 43%

**Q.** How did the inhibition at 1 µM turn out when `FC1(F)CCN(C2=NCCOc3ccc(-c4ccc(C(F)(F)F)cc4)cc32)CC1` [II-21, 5-(4,4-difluoropiperidin-1-yl)-7-(4-(trifluoromethyl)phenyl)-2,3-dihydrobenzo[f][1,4]oxazepine] was run?
**A.** 13%

**Q.** For `OC1CCN(C2=NCCOc3ccc(-c4ccc(C(F)(F)F)cc4)cc32)C1` (centres unmarked) [II-23, 1-(7-(4-(trifluoromethyl)phenyl)-2,3-dihydrobenzo[f][1,4]oxazepin-5-yl)pyrrolidin-3-ol], which inhibition at 1 µM is on record?
**A.** 9%

**Q.** How did the inhibition at 1 µM turn out when `FC(F)(F)c1ccc(-c2ccc3c(c2)C(NCCOc2ccccc2Cl)=NCCO3)cc1` [II-24, N-(2-(2-chlorophenoxy)ethyl)-7-(4-(trifluoromethyl)phenyl)-2,3-dihydrobenzo[f][1,4]oxazepin-5-amine] was run?
**A.** 26%

**Q.** How did the inhibition at 1 µM turn out when `FC(F)(F)c1ccc(-c2ccc3c(c2)C(NCc2cccc(C(F)(F)F)n2)=NCCO3)cc1` [II-25, 7-(4-(trifluoromethyl)phenyl)-N-((6-(trifluoromethyl)pyridin-2-yl)methyl)-2,3-dihydrobenzo[f][1,4]oxazepin-5-amine] was run?
**A.** 20%

**Q.** For `FC(F)(F)c1ccc(-c2ccc3c(c2)C(Nc2nnn[nH]2)=NCCO3)cc1` [II-26, N-(1H-tetrazol-5-yl)-7-(4-(trifluoromethyl)phenyl)-2,3-dihydrobenzo[f][1,4]oxazepin-5-amine], which inhibition at 1 µM is on record?
**A.** 14%

**Q.** For `FC(F)(F)c1ccc(-c2ccc3c(c2)C(Nc2cccc(C(F)(F)F)n2)=NCCO3)cc1` [II-27, 7-(4-(trifluoromethyl)phenyl)-N-(6-(trifluoromethyl)pyridin-2-yl)-2,3-dihydrobenzo[f][1,4]oxazepin-5-amine], which inhibition at 1 µM is on record?
**A.** 1%

**Q.** For `FC(F)(F)CNC1=NCCOc2ccc(-c3ccc(C(F)(F)F)cc3)cc21` [II-29, N-(2,2,2-trifluoroethyl)-7-(4-(trifluoromethyl)phenyl)-2,3-dihydrobenzo[f][1,4]oxazepin-5-amine], which inhibition at 1 µM is on record?
**A.** 7%

**Q.** For `O=C1CCCN1C1=NCCOc2ccc(-c3ccc(C(F)(F)F)cc3)cc21` [II-30, 1-(7-(4-(trifluoromethyl)phenyl)-2,3-dihydrobenzo[f][1,4]oxazepin-5-yl)pyrrolidin-2-one], which inhibition at 1 µM is on record?
**A.** 10%

**Q.** `FC(F)(F)c1ccc(-c2ccc3c(c2)C(N2CCN(C4CC4)CC2)=NCCO3)cc1` [II-31, 5-(4-cyclopropylpiperazin-1-yl)-7-(4-(trifluoromethyl)phenyl)-2,3-dihydrobenzo[f][1,4]oxazepine] was tested. Which inhibition at 1 µM did it give?
**A.** 24%

**Q.** Which inhibition at 1 µM does the source give for `FC(F)(F)c1ccc(-c2ccc3c(c2)C(Nc2ccccc2)=NCCO3)cc1` [II-32, N-phenyl-7-(4-(trifluoromethyl)phenyl)-2,3-dihydrobenzo[f][1,4]oxazepin-5-amine] here?
**A.** 26%

**Q.** Which inhibition at 1 µM does the source give for `Cn1c(CNC2=NCCOc3ccc(-c4ccc(C(F)(F)F)cc4)cc32)nc2ccccc21` [II-33, N-((1-methyl-1H-benzo[d]imidazol-2-yl)methyl)-7-(4-(trifluoromethyl)phenyl)-2,3-dihydrobenzo[f][1,4]oxazepin-5-amine] here?
**A.** 34%

**Q.** With `FC(F)(F)c1ccc(-c2ccc3c(c2)C(NC2CCN(Cc4ncccn4)C2)=NCCO3)cc1` (centres unmarked) [II-34, N-(1-(pyrimidin-2-ylmethyl)pyrrolidin-3-yl)-7-(4-(trifluoromethyl)phenyl)-2,3-dihydrobenzo[f][1,4]oxazepin-5-amine] as the compound, how does the inhibition at 1 µM read?
**A.** 3%

**Q.** With `O=C(c1ncccn1)N1CCC(NC2=NCCOc3ccc(-c4ccc(C(F)(F)F)cc4)cc32)C1` (centres unmarked) [II-35, pyrimidin-2-yl(3-(7-(4-(trifluoromethyl)phenyl)-2,3-dihydrobenzo[f][1,4]oxazepin-5-ylamino)pyrrolidin-1-yl)methanone] as the compound, how does the inhibition at 1 µM read?
**A.** 4%

**Q.** Which inhibition at 1 µM does the source give for `FC(F)(F)c1ccc(-c2ccc3c(c2)C(N2CCC(N4CCCC4)C2)=NCCO3)cc1` (centres unmarked) [II-36, 5-(1,3′-bipyrrolidin-1′-yl)-7-(4-(trifluoromethyl)phenyl)-2,3-dihydrobenzo[f][1,4]oxazepine] here?
**A.** 7%

**Q.** With `FC(F)(F)c1ccc(-c2ccc3c(c2)C(N2CCC(NCc4ncccn4)C2)=NCCO3)cc1` (centres unmarked) [II-37, N-(pyrimidin-2-ylmethyl)-1-(7-(4-(trifluoromethyl)phenyl)-2,3-dihydrobenzo[f][1,4]oxazepin-5-yl)pyrrolidin-3-amine] as the compound, how does the inhibition at 1 µM read?
**A.** 20%

**Q.** `CN(C(=O)OC(C)(C)C)[C@@H]1CCN(C2=NCCOc3ccc(-c4ccc(C(F)(F)F)cc4)cc32)C1` [II-38, (R)-tert-butyl methyl(1-(7-(4-(trifluoromethyl)phenyl)-2,3-dihydrobenzo[f][1,4]oxazepin-5-yl)pyrrolidin-3-yl)carbamate] was tested. Which inhibition at 1 µM did it give?
**A.** 18%

**Q.** For `CN[C@@H]1CCN(C2=NCCOc3ccc(-c4ccc(C(F)(F)F)cc4)cc32)C1` [II-39, (R)—N-methyl-1-(7-(4-(trifluoromethyl)phenyl)-2,3-dihydrobenzo[f][1,4]oxazepin-5-yl)pyrrolidin-3-amine], which inhibition at 1 µM is on record?
**A.** 26%

**Q.** Which inhibition at 1 µM does the source give for `CN(C(=O)OC(C)(C)C)[C@H]1CCN(C2=NCCOc3ccc(-c4ccc(C(F)(F)F)cc4)cc32)C1` [II-40, (S)-tert-butyl methyl(1-(7-(4-(trifluoromethyl)phenyl)-2,3-dihydrobenzo[f][1,4]oxazepin-5-yl)pyrrolidin-3-yl)carbamate] here?
**A.** 18%

**Q.** Which inhibition at 1 µM does the source give for `N[C@@H]1CCN(C2=NCCOc3ccc(-c4ccc(C(F)(F)F)cc4)cc32)C1` [II-41, (R)-1-(7-(4-(trifluoromethyl)phenyl)-2,3-dihydrobenzo[f][1,4]oxazepin-5-yl)pyrrolidin-3-amine] here?
**A.** 6%

**Q.** With `O=C1CCCN1C1CCN(C2=NCCOc3ccc(-c4ccc(C(F)(F)F)cc4)cc32)CC1` [II-42, 1-(1-(7-(4-(trifluoromethyl)phenyl)-2,3-dihydrobenzo[f][1,4]oxazepin-5-yl)piperidin-4-yl)pyrrolidin-2-one] as the compound, how does the inhibition at 1 µM read?
**A.** 9%

**Q.** How did the inhibition at 1 µM turn out when `CN[C@H]1CCN(C2=NCCOc3ccc(-c4ccc(C(F)(F)F)cc4)cc32)C1` [II-44, (S)—N-methyl-1-(7-(4-(trifluoromethyl)phenyl)-2,3-dihydrobenzo[f][1,4]oxazepin-5-yl)pyrrolidin-3-amine] was run?
**A.** 9%

**Q.** For `O=C(N[C@H]1CCN(C2=NCCOc3ccc(-c4ccc(C(F)(F)F)cc4)cc32)C1)c1ncccn1` [II-45, (S)—N-(1-(7-(4-(trifluoromethyl)phenyl)-2,3-dihydrobenzo[f][1,4]oxazepin-5-yl)pyrrolidin-3-yl)pyrimidine-2-carboxamide], which inhibition at 1 µM is on record?
**A.** 6%

**Q.** How did the inhibition at 1 µM turn out when `O=C(N[C@@H]1CCN(C2=NCCOc3ccc(-c4ccc(C(F)(F)F)cc4)cc32)C1)c1ncccn1` [II-46, (R)—N-(1-(7-(4-(trifluoromethyl)phenyl)-2,3-dihydrobenzo[f][1,4]oxazepin-5-yl)pyrrolidin-3-yl)pyrimidine-2-carboxamide] was run?
**A.** 4%

**Q.** Which inhibition at 1 µM does the source give for `O=C(N[C@@H]1CCN(C2=NCCOc3ccc(-c4ccc(C(F)(F)F)cc4)cc32)C1)c1ccccn1` [II-47, (R)—N-(1-(7-(4-(trifluoromethyl)phenyl)-2,3-dihydrobenzo[f][1,4]oxazepin-5-yl)pyrrolidin-3-yl)picolinamide] here?
**A.** 18%

**Q.** Which inhibition at 1 µM does the source give for `CCN(CC)[C@H]1CCN(C2=NCCOc3ccc(-c4ccc(C(F)(F)F)cc4)cc32)C1` [II-48, (S)—N,N-diethyl-1-(7-(4-(trifluoromethyl)phenyl)-2,3-dihydrobenzo[f][1,4]oxazepin-5-yl)pyrrolidin-3-amine] here?
**A.** 24%
